# Assay results as given in paper PMC12549899 (Nature Communications, 2025).
# Positions count from the first letter of the chain named. Where “and” joins values, the source holds several entries; their conditions need not be identical. Equal values may be shown once. Entries after “also recorded” stand apart in the source; their conditions may differ. Read-outs that look alike come from different tables or passages of the source.
# Key:
# [1] = target: T1, DrOTOP1 (Danio rerio, UniProt Q7ZWK8); assay: Whole-cell patch-clamp, inhibition of acid-evoked currents, WT DrOTOP1 expressed in HEK-293 cells; type: cell-based, zebrafish (Danio rerio); settings: for Inhibition of pH 5.5-induced currents, screen 1 / Inhibition of pH 5.5-induced currents, screen 2: 200 µM compound; for Inhibition of pH 5.5-induced currents, screen 1 / inhibition at 200 µM / Inhibition of pH 5.5-induced currents, screen 2: HEK-293 cells expressing DrOTOP1, Vm -80 mV, values of single cells; for Inhibition of pH 5.5-induced currents, screen 1: 200 µM; for inhibition at 200 µM: HEK293, pH 5.5, 200 µM compound
# T1 construct: A previously generated codon-optimized full-length DrOTOP1[8]; (UniProt: Q7ZWK8) construct; expressed in transfected cells; host or cells: HEK-293 (CRL-1573, ATCC)
# T1 sequence (Q7ZWK8 1-586): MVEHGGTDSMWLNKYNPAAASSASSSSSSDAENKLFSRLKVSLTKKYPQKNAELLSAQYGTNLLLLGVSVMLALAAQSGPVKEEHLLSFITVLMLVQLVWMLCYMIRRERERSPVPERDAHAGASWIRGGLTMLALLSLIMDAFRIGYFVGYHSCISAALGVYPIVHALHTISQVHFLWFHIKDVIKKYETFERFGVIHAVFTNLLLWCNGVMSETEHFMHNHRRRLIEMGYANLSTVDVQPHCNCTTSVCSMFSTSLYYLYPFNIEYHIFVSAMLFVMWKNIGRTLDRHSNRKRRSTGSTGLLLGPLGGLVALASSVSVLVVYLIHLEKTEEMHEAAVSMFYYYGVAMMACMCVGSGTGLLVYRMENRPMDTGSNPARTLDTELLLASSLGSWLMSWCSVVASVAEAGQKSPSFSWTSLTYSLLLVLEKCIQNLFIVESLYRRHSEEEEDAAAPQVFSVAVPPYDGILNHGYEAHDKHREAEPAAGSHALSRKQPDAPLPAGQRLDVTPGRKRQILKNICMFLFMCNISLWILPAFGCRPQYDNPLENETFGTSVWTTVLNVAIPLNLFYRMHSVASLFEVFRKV
# Source text: The 50 molecules identified were individually tested by whole-cell patch-clamp electrophysiology for effects on DrOTOP1 expressed in human embryonic kidney (HEK)−293 cells. […] This approach enabled us to observe the on- and off-responses of each compound. To quantify the effect of each compound, we compared the current magnitude during compound application immediately before wash-off, to the peak inward current following its removal (Supplementary Fig. 2A).
# (§1) HEK-293 cells (CRL-1573, ATCC) were cultured in DMEM (Thermofisher 11995073) containing 10% fetal bovine serum (Life Technology 16000044) and Penicillin-Streptomycin (100 I.U./mL) and (100 µg/mL), respectively. Cells were transfected with WT DrOTOP1 or mutant DrOTOP1 channels in 35 mm petri dishes, with ~ 500 ng DNA and 2 μL TransIT-LT1 transfection reagent (Mirus Bio Corporation, Cat # MIR2300) following the manufacturer’s protocol. All constructs were subcloned into a pcDNA3.1 vector that adds an N-terminal fusion tag consisting of an octahistidine tag followed by eGFP, a Gly-Thr-Gly-Thr linker and a 3C protease cleavage site ([…]) followed by WT DrOTOP1, WT mOTOP1, WT hOTOP1, or mutated DrOTOP1. Point mutations were generated via In-Fusion Cloning (Takara) using single-stranded DNA primers generated through IDT and sequence confirmed by Sanger sequencing (GeneWiz).
# (§2) Whole-cell patch-clamp recording was performed as previously described[6],[22],[25]. Recordings were made with an Axopatch 200B amplifier, digitized with a Digidata 1322a 16-bit data acquisition system, acquired with pClamp 8.2 and analyzed with Clampfit 10 (Molecular Devices). Recordings were sampled at 5 kHz and filtered at 1 kHz. Patch Pipettes with resistance of […] were fabricated from borosilicate glass, and only recordings with a giga-Ohm seal were used in analysis. Membrane potential was held at −80 mV for the duration of recordings. At the beginning of recordings and between, cells were washed with Tyrode’s solution (see below). Once a giga-Ohm seal was reached, cells were lifted and placed in front of microcapillary tubes controlled by a Fast-Step perfusion system (Warner Instruments) so that extracellular solutions could be rapidly exchanged during each experiment.
# Standard Tyrode’s solution consisted of 145 mM NaCl, 5 mM KCl, MgCl2, 2 mM CaCl2, 20 mM D-Glucose, and 10 mM HEPES (for pH 7.4). All other extracellular patch-clamp solutions contained 160 mM NMDG-Cl, 2 mM CaCl2, and the following buffers: 10 mM HEPES (for pH 7.4), 10 mM MES (for pH 6.5-5.5), 10 mM CHES for pH 10, and 10 mM HomoPIPES for (pH 5.0). pH adjusted with HCl. […] The pipette contained intracellular solution made up of 120 mM Cs-aspartate, 15 mM CsCl, 2 mM Mg-ATP, 5 mM EGTA, 2.4 mM CaCl2 (100 nM free Ca^2+), and 10 mM HEPES with a pH of 7.3. All extracellular solution osmolarity was adjusted to 300 mOsm and intracellular osmolarity was adjusted to 290 mOsm.
# All data are presented as mean ± SEM unless otherwise noted, and each data point represents an independent replicant. Inhibition of compounds was quantified as ((I2peak-I1)/(I2peak))*100, where I1 is the current immediately before wash-off and I2peak is the maximum recovered current (Supplementary Fig. 2). Hill coefficients were determined by the following equation: Y = Bmax*X^h/(Kd^h + X^h).
# [2] = target: T2, DrOTOP1 G130W (Danio rerio, UniProt Q7ZWK8, G130W); assay: Whole-cell patch-clamp, inhibition of acid-evoked currents, DrOTOP1 G130W (outer site); type: cell-based, zebrafish (Danio rerio); settings: DrOTOP1 G130W
# T2 construct: A previously generated codon-optimized full-length DrOTOP1[8]; (UniProt: Q7ZWK8) construct; expressed in transfected cells; host or cells: HEK-293 (CRL-1573, ATCC)
# T2 sequence (Q7ZWK8 1-586 G130W): T1 sequence (Q7ZWK8 1-586) with G130W
# Source text: To functionally test the significance of the two binding sites identified by cryo-EM, we generated point mutations of DrOTOP1 using the binding poses and conformational changes observed in DrOTOP1_C2.2 to guide our mutations. As per the binding pose that best fits our cryo-EM density, C2.2 forms the following interactions in the outer site: hydrophobic packing against many non-polar residues W126, G130, M133, L134, F271, F570, and M573, and π-stacking with W532 (Fig. 5A). In addition, C2.2 could potentially form H-bonds with E267, if the sidechain is protonated or a water bridge is present, and with H574 if it moves closer (Fig. 5A). Likewise, C2.36 presents a heterocyclic nitrogen that can potentially form a H-bond with E267, similarly, provided a protonation or water bridge is present (Fig. 5B). In addition, C2.36 forms a T-shaped π-stacking interaction with H574, whose sidechain has rotated 90 degrees (compared to DrOTOP1_apo), presumably to accommodate the interaction (Fig. 5B). Considering other inhibitors discovered from the second round of screening, many contain functional groups like the carbonyl groups of Group 1 molecules and the heterocyclic nitrogen atoms of Group 2 molecules (Supplementary Fig. 3E), that can potentially form similar H-bonds with E267 as C2.2 and C2.36, assuming the binding modes are similar. In the central site, C2.2 binds with the following interactions: hydrophobic packing with residues V201, F271, A274, V278, and A388, π-stacking with F277, and H-bonding with E384 (Fig. 5C).
# Each non-aromatic residue was mutated to tryptophan, which was expected to cause steric occlusion. […] This seemed appropriate given the small number of H-bonds in these pockets, the ambiguity of how the inhibitors fit the density, and the prevalence of hydrophobic packing interactions (Fig. 5A–C).
# as §1, §2
# Standard Tyrode’s solution consisted of 145 mM NaCl, 5 mM KCl, MgCl2, 2 mM CaCl2, 20 mM D-Glucose, and 10 mM HEPES (for pH 7.4). All other extracellular patch-clamp solutions contained 160 mM NMDG-Cl, 2 mM CaCl2, and the following buffers: 10 mM HEPES (for pH 7.4), 10 mM MES (for pH 6.5-5.5), 10 mM CHES for pH 10, and 10 mM HomoPIPES for (pH 5.0). pH adjusted with HCl. […]
# [3] = FDA 1-3 = FDA-approved drugs, read-out: Inhibition of pH 5.5-induced currents, screen 2
smiles,measurement,setting,value
Cc1noc(-c2csc(Cc3ccccc3)n2)n1 [C39],"Inhibition of pH 5.5-induced currents, screen 1",[1],1.199% and 1.966% and 0.3901%
Cc1csc(NC(=O)c2nc(C3CC3)n[nH]2)n1 [C38],"Inhibition of pH 5.5-induced currents, screen 1",[1],0.5534% and 0.7746%
same,inhibition at 200 µM,"[1]; read-out: Inhibition of pH 5.5-induced currents, screen 1",0.922%
Oc1ccc(-c2nnc3n2Cc2ccccc2OC3)cc1 [C2.36],Wash-off compared to WT,[2],faster wash-off
same,Inhibition (Fig. 5N),"[2]; pH 5.5, 100 µM C2.36 according to legend of Fig. 5M, N, single cells",significantly less inhibition
same,Kinetics and reversibility of inhibition,"[1]; WT DrOTOP1, pH 5.5 stimulus",uniquely slow off-rate; also recorded: slowly inhibited; also recorded: poorly reversible
"CC(=O)O[C@H]1Cc2ccccc2N(C(N)=O)c2ccccc21 [eslicarbazepine acetate, reference compound]","Inhibition of pH 5.5-induced currents, screen 2","[1]; FDA 1-3 = FDA-approved drugs, listed as FDA 2, 200 µM",4.01% and 3.687%
same,inhibition at 200 µM,[1]; [3],3.48%
Cc1n[nH]c(CNC(=O)c2cnc3ccccc3n2)n1 [C44],"Inhibition of pH 5.5-induced currents, screen 1",[1],3.035% and 1.397% and 1.665%
COCc1nc(-c2nc3c([nH]2)CCCNC3=O)no1 [C42],"Inhibition of pH 5.5-induced currents, screen 1",[1],1.242% and 3.465% and 1.504%
Cc1nc(=NCCCc2ncc[nH]2)c2c([nH]1)COc1ccccc1C2 [C2.51],"Inhibition of pH 5.5-induced currents, screen 2","[1]; FDA 1-3 = FDA-approved drugs, listed as 51, 200 µM",16.6082% and 21.5548%
same,inhibition at 200 µM,[1]; [3],26.3%
